According to patent US20230417740A1, “TISSUE-MIMICKING HYDROGEL COMPOSITIONS FOR BIOFABRICATION” (Wake Forest University Health Sciences, priority 2014, published 2023):

Test system: bioprinted liver organoids
Format: cell-based
Details: 20 mM NAC with 10 mM APAP, general trend of the data

CC(=O)N[C@@H](CS)C(=O)O [NAC, N-acetyl-L-cysteine]
rescue of liver organoids from APAP insult: can be rescued
